Experimental data as given in patent US20230414560A1, “COMPOSITIONS AND METHODS FOR TREATING ECZEMA” (General Nutraceutical Technology LLC, priority 2022, published 2023).
Values after ≈ are worked out from the molar mass of the structure shown. Like-named read-outs stand apart in the source and are kept apart here.

Experiments:
[1] = cited from earlier work
Raw 264.7 cells = assay: Raw 264.7 cytotoxicity (MTT assay); format: cell-based, murine; conditions: luteolin concentrations tested
Method: (§1) Cell viability of U266 was measured by trypan blue exclusion (Yang, Patil, et al., 2013). Cell suspension (10 uL) was mixed with trypan blue dye (10 uL), and viable cells and total cells counted with a hemocytometer. The cell viability was calculated using the equation: cell viability=(total number of viable cells)/(total number of cells). The viability of Raw 264.7 was evaluated using the MTT assay carried out as previously described (Liu, C. et al., 2015, Phytother Res, 29(6), 925-932). Cells were seeded into a 96-well plate at 2×10^4 cells/well, then different concentrations of SZT-I or active compounds were added to the plate. After 24 h, 50 μL MTT (2.0 mg/mL) was added to wells and the plate was incubated for a further 3 h. The supernatant was discarded, and the generated formazan was dissolved in dimethyl sulfoxide (DMSO) (200 μL). The absorbance of wells was detected at 590 nm.

U266 cells = assay: U266 cell viability (trypan blue exclusion); format: cell-based, Human; conditions: at the concentrations reducing IgE
Method: as §1

TNF-α [2] = assay: TNF-α production by LPS-stimulated RAW 264.7 cells (ELISA); format: cell-based, murine
Method: (§2) Human U266 myeloma cells were cultured in complete media containing RPMI-1640 medium with 10% fetal bovine serum (FBS), 0.5% penicillin-streptomycin, 1×10^−5 mol/L of 0-mercaptoethanol, and 1 mmol/L of sodium pyruvate at 37° C. in an incubator with 5% CO2. U266 cells were cultured at initial 2×10^5 cell/mL with SZT-I or active compounds at different concentration. Then the supernatants were collected after 6 days. The level of IgE was. measured by an enzyme-linked immunosorbent assay (ELISA) kit according to the manufacturer's instructions. RAW 264.7 murine macrophages (5×10^5 cell/mL) were cultured in DMEM medium supplemented with 10% FBS, and 0.5% penicillin-streptomycin at 37° C. under 5% CO2. SZT-I or active compounds at different concentrations and LPS (0.5 μg/mL) added to cells. Supernatants were harvested after 24 h and analyzed by ELISA for TNF-α (Mabtech, In vitro studies-Cell viability Inc, Cincinnati, Ohio). Eotaxin inhibitory assays were conducted by using human fetal lung fibroblast (HFL-1) cells. HFL-1 (CCL-153) cells were grown in F-12K medium (ATCC, Rockville, MD) containing 10% fetal bovine serum (Gibco BRL, Grand Island, NY) and 1% penicillin-streptomycin (BD Bio, San Jose, CA). […] Eotaxin levels were determined by using ELISA (R&D Systems) according to the directions of the manufacturer.

Bcl2 = assay: RT-PCR mRNA expression of hub target Bcl2 after LPS; format: cell-based, murine; conditions: Raw cells
Method: (§3) Expressions of targets were measured by RT-PCR. After treatment, total RNA was collected from the esophagus. Reverse transcription was conducted to obtain the cDNA. The RT-PCR amplification was performed using SYBRTM Green Master Mix with primers. The primer sequences were listed as follows: m-TNF-α: F-[…] (SEQ ID NO: 3); R-[…] (SEQ ID NO: 4). m-Bcl2: F-[…] (SEQ ID NO: 5); R-[…] (SEQ ID NO: 6). m-IL1B: F-[…] (SEQ ID NO: 7); R-[…] TGTGTG (SEQ ID NO: 8). m-PPARG: F-[…] (SEQ ID NO: 9); R-[…] (SEQ ID NO: 10).

IgE = IgE production by U266 myeloma cells (ELISA); format: cell-based, Human
Method: as §2

TNF-α [3] = assay: RT-PCR mRNA expression of hub target TNF-α after LPS; format: cell-based, murine; conditions: after LPS stimulation
Method: as §3

PPARG = assay: RT-PCR mRNA expression of hub target PPARG after LPS; format: cell-based, murine; conditions: inhibited by LPS
Method: as §3

IL1B = assay: RT-PCR mRNA expression of hub target IL1B after LPS; format: cell-based, murine; conditions: after LPS stimulation
Method: as §3

In the case of `COc1cc2oc3c4c(O)cc(O)cc4oc(=O)c3c2cc1OC` [1,3-dihydroxy-8,9-dimethoxy-6-benzofurano[3,2-c]chromenone], the “O.B. (oral bioavailability)” value ([1]; TCMSP database, Table 1) is listed as 62.9.
In the case of `COc1cc(O)cc2c1[C@@H]1Oc3c(ccc(O)c3CC=C(C)C)[C@@H]1CO2` [1-Methoxyphaseol-lidin], the “O.B. (oral bioavailability)” value ([1]; TCMSP database, Table 1) is given as 69.98.
For `CC(C)=CCc1c(O)cc(O)c2c(=O)c(-c3ccc(O)c(O)c3)coc12` [3-(3,4-dihydroxyphenyl)-5,7-dihydroxy-8-(3-methylbut-2-enyl)chromone], the “O.B. (oral bioavailability)” value ([1]; TCMSP database, Table 1) is given as 66.37.
For `CCCCC/C=C/C/C=C/CCCCCCCCCC(=O)O` [11,14-eicosadienoic acid], the “O.B. (oral bioavailability)” value ([1]; TCMSP database, Table 1) is listed as 39.99.
In the case of `O=C1C[C@H](c2ccc(O)cc2)Oc2cc(O)ccc21` [(2R)-7-hydroxy-2-(4-hydroxyphenyl) chroman-4-one], the “O.B. (oral bioavailability)” value ([1]; TCMSP database, Table 1) is given as 71.12.
In the case of `C=C(C)[C@@H]1CC[C@]2(C(=O)O)CC[C@]3(C)[C@H](CC[C@@H]4[C@@]5(C)CC[C@H](O)C(C)(C)[C@@H]5CC[C@]43C)[C@@H]12` [Betulinic acid], the “O.B. (oral bioavailability)” value ([1]; TCMSP database, Table 1) is listed as 55.38.
For `COc1cc(-c2cc(=O)c3c(O)cc(O)cc3o2)ccc1O` [Chryseriol], the “O.B. (oral bioavailability)” value ([1]; TCMSP database, Table 1) is given as 35.85.
In the case of `Oc1cc(O)c2c(c1)O[C@H](c1ccc(O)c(O)c1)[C@@H](O)C2` [Cianidanol], the “O.B. (oral bioavailability)” value ([1]; TCMSP database, Table 1) is given as 36.91.
In the case of `CC/C=C/C/C=C/C/C=C/CCCCCCCC(=O)OCC` [Ethyl linolenate], the “O.B. (oral bioavailability)” value ([1]; TCMSP database, Table 1) is given as 46.1.
For `CCCCCCCC/C=C\CCCCCCCC(=O)OCC` [Ethyl oleate], the “O.B. (oral bioavailability)” value ([1]; TCMSP database, Table 1) is listed as 32.4.
For `COc1ccc(-c2coc3cc(O)ccc3c2=O)cc1` [Formononetin], the “O.B. (oral bioavailability)” value ([1]; TCMSP database, Table 1) is listed as 69.67.
For `CC1(C)C=Cc2c(ccc3c2OC[C@@H](c2ccc(O)cc2O)C3)O1` [Glabridin], the “O.B. (oral bioavailability)” value ([1]; TCMSP database, Table 1) is given as 53.25.
For `CC1(C)C=Cc2c(ccc(-c3coc4cc(O)ccc4c3=O)c2O)O1` [Glabrone], the “O.B. (oral bioavailability)” value ([1]; TCMSP database, Table 1) is listed as 52.51.
For `COc1c(CC=C(C)C)c(O)cc2oc(=O)c3c4ccc(O)cc4oc3c12` [Glycyrol], the “O.B. (oral bioavailability)” value ([1]; TCMSP database, Table 1) is given as 90.78.
For `COc1ccc(C(=O)/C=C/c2ccc(O)cc2OC)cc1` [Glypallichalcone], the “O.B. (oral bioavailability)” value ([1]; TCMSP database, Table 1) is listed as 61.6.
In the case of `O=C1/C(=C2\Nc3ccccc3C2=O)Nc2ccccc21` [Indigo], the “O.B. (oral bioavailability)” value ([1]; TCMSP database, Table 1) is listed as 38.2.
In the case of `O=c1c(O)c(-c2ccc(O)cc2)oc2cc(O)cc(O)c12` [Kaempferol], the “O.B. (oral bioavailability)” value ([1]; TCMSP database, Table 1) is given as 41.88.
In the case of `CC1(C)C=Cc2c(ccc3cc(-c4ccc(O)cc4O)c(=O)oc23)O1` [Kanzonols W], the “O.B. (oral bioavailability)” value ([1]; TCMSP database, Table 1) is given as 50.48.
For `COc1c(/C=C/C(=O)c2ccc(O)cc2)ccc(O)c1O` [Licochalcone B], the “O.B. (oral bioavailability)” value ([1]; TCMSP database, Table 1) is given as 76.76.
For `CC(C)=CCc1c(O)cc(O)c2c(=O)c(-c3ccc(O)cc3)coc12` [Lupiwighteone], the “O.B. (oral bioavailability)” value ([1]; TCMSP database, Table 1) is given as 51.64.
For `O=c1cc(-c2ccc(O)c(O)c2)oc2cc(O)cc(O)c12` [Luteolin], the “cell toxicity on Raw 264.7” value (Raw 264.7 cells) was “no significant cell toxicity”, the “cytotoxicity on U266” value (U266 cells) was “without cytotoxicity” and the IC50 (TNF-α [2]; Mus musculus, RAW264.7, Raw 264.7 cells, LPS 0.5 μg/mL, 24 h) was 5.61 µg/mL (≈ 19.6 µM). The “production of TNF-α compared with quercetin and kaempferol” value (TNF-α [2]; Raw 264.7 cells stimulated by LPS, 20 μg/mL) was “significantly inhibited”, the “mRNA expression of Bcl2” value (Bcl2) was “increased the expression of Bcl2 significantly” and the “OB (oral bioavailability)” value ([1]; TCMSP database) was 36.16%. For the same compound, the “production of IgE” value (IgE; 10 μg/mL) was “strongly diminished”, the IC50 (IgE; Homo sapiens, U-266, 144 h, 6 days) was roughly 4.81 µg/mL (≈ 16.8 µM) and the “mRNA expression of TNF-α” value (TNF-α [3]) was “reversed”. For the same compound, the “mRNA expression of PPARG” value (PPARG) was “upregulated” and the “mRNA expression of IL1B” value (IL1B) was “reversed”.
For `CCCCC/C=C\C/C=C\CCCCCCCC(=O)OCC` [Mandenol], the “O.B. (oral bioavailability)” value ([1]; TCMSP database, Table 1) is listed as 42.
In the case of `C=C(CC[C@@H](C(=O)O)[C@H]1[C@H](O)C[C@@]2(C)C3=C(CC[C@]12C)[C@@]1(C)CC[C@H](OC(C)=O)C(C)(C)[C@@H]1CC3)C(C)C` [Pachymic acid], the “O.B. (oral bioavailability)” value ([1]; TCMSP database, Table 1) is given as 33.63.
In the case of `O=c1c(O)c(-c2ccc(O)c(O)c2)oc2cc(O)cc(O)c12` [Quercetin], the “O.B. (oral bioavailability)” value ([1]; TCMSP database, Table 1) is given as 46.43.
In the case of `CC(C)=CC[C@H](O)C1=CC(=O)c2c(O)ccc(O)c2C1=O` [Shikonin], the “O.B. (oral bioavailability)” value ([1]; TCMSP database, Table 1) is listed as 64.79.
In the case of `CCC(/C=C/[C@H](C)[C@@H]1CC[C@@H]2[C@@H]3CC=C4C[C@@H](O)CC[C@]4(C)[C@@H]3CC[C@@]21C)C(C)C` (stereo partly shown) [ZINC03978781], the “O.B. (oral bioavailability)” value ([1]; TCMSP database, Table 1) is given as 43.83.
In the case of `CN1CCc2cc3c(cc2[C@H]1[C@H]1OC(=O)c2c1ccc1c2OCO1)OCO3` [bicuculline], the “O.B. (oral bioavailability)” value ([1]; TCMSP database, Table 1) is given as 69.67.
In the case of `CC(C)=CCc1c(O)cc2c(c1O)C=C(c1ccc(O)cc1O)CO2` [dehydroglyasperins C], the “O.B. (oral bioavailability)” value ([1]; TCMSP database, Table 1) is listed as 53.82.
For `O=C1C[C@@H](c2ccc(O[C@@H]3O[C@H](CO)[C@@H](O)[C@H](O)[C@H]3O)cc2)Oc2cc(O)ccc21` [liquiritin], the “O.B. (oral bioavailability)” value ([1]; TCMSP database, Table 1) is listed as 65.69.
In the case of `C[C@@]12C[C@@]3(O)O[C@H](O1)[C@@]1(COC(=O)c4ccccc4)[C@@H]3C[C@]12O[C@@H]1O[C@H](CO)[C@H](O)[C@H](O)[C@@H]1O` [paeoniflorin_qt], the “O.B. (oral bioavailability)” value ([1]; TCMSP database, Table 1) is given as 68.18.
For `COc1c(O)cc(O)c2c(=O)cc(-c3ccccc3)oc12` [wogonin], the “O.B. (oral bioavailability)” value ([1]; TCMSP database, Table 1) is given as 30.68.
In the case of `CC1=C(/C=C/C(C)=C/C=C/C(C)=C/C=C/C=C(C)/C=C/C=C(C)/C=C/C2=C(C)CCCC2(C)C)C(C)(C)CCC1` [β-carotene], the “O.B. (oral bioavailability)” value ([1]; TCMSP database, Table 1) is listed as 37.18.
In the case of Sitosterol, the “O.B. (oral bioavailability)” value ([1]; TCMSP database, Table 1) is listed as 36.91 and the “OB (oral bioavailability)” value ([1]; TCMSP database) is listed as 36.91%.
In the case of Stigmasterol, the “O.B. (oral bioavailability)” value ([1]; TCMSP database, Table 1) is given as 43.83 and the “OB (oral bioavailability)” value ([1]; TCMSP database) is given as 43.83%.
In the case of β-amyrin acetate, the “O.B. (oral bioavailability)” value ([1]; po) is listed as 42.06.
In the case of β-sitosterol, the “O.B. (oral bioavailability)” value ([1]; TCMSP database, Table 1) is listed as 36.91 and the “OB (oral bioavailability)” value ([1]; TCMSP database) is listed as 36.91%.
